Test results taken from publication PMC10620772, “Design, synthesis, and biological evaluation of new pyrimidine-5-carbonitrile derivatives as novel anti-cancer, dual EGFR^WT/COX-2 inhibitors with docking studies” (RSC Advances, 2023).

Assays:
Format in all cases: cell-based, human
A549/ATCC = experiment: NCI60 antitumor screening
SW-620 = experiment: NCI60 antitumor screening
TK-10 = experiment: NCI60 antitumor screening
UACC-257 = experiment: NCI60 antitumor screening
KM12 = experiment: NCI60 antitumor screening
K-562 = experiment: NCI60 antitumor screening
SK-OV-3 = experiment: NCI60 antitumor screening
OVCAR-8 = experiment: NCI60 antitumor screening
MDA-MB-231/ATCC = experiment: NCI60 antitumor screening; conditions: Homo sapiens; 10 μM single dose; MDA-MB-231/ATCC (breast cancer); read-out: growth inhibition percent (GI%)
Leukemia subpanel = experiment: NCI60 five-dose, subpanel I
Description: (2) The molar concentration of the compound responsible for total growth inhibition, also known as total growth inhibition (TGI).
Regarding subpanel selectivity toward certain cancer type, the method of determining a compound's selectivity index is to divide the full panel MG-MID (μM) value by each single subpanel. Values above six indicate high selectivity against the subpanel; moderate selectivity is denoted by values between three and six. Conversely, compounds are termed nonselective if their selectivity is less than three.[30,37]

SNB-75 = experiment: NCI60 antitumor screening; conditions: Homo sapiens; 10 μM single dose; SNB-75 (CNS cancer); read-out: growth inhibition percent (GI%)
NCI-H226 = experiment: NCI60 antitumor screening
MCF7 = experiment: NCI60 antitumor screening
LOX IMVI = experiment: NCI60 antitumor screening
RXF 393 = experiment: NCI60 antitumor screening
MALME-3M = experiment: NCI60 antitumor screening
CAKI-1 = experiment: NCI60 antitumor screening
SR = experiment: NCI60 antitumor screening
HOP-92 = experiment: NCI60 antitumor screening
NCI-H522 = experiment: NCI60 antitumor screening
786–0 = experiment: NCI60 antitumor screening
HOP-62 = experiment: NCI60 antitumor screening
MDA-MB-468 = experiment: NCI60 antitumor screening
SNB-19 = experiment: NCI60 antitumor screening
DU-145 = experiment: NCI60 antitumor screening
RPMI-8226 = experiment: NCI60 antitumor screening
U251 = experiment: NCI60 antitumor screening
MDA-MB-435 = experiment: NCI60 antitumor screening
[1] = Homo sapiens, MDA-MB-468, five-dose

N#Cc1c(-c2ccc(F)cc2)nc(SCc2ccccc2)nc1N1CCNCC1 [4e, 2-(Benzylthio)-4-(4-fluorophenyl)-6-(piperazin-1-yl) pyrimidine-5-carbonitrile]
GI50 (A549/ATCC; Homo sapiens, A549, five-dose): 8.1 µM | LC50 (concentration killing 50% of cells) (A549/ATCC; Homo sapiens, A549, five-dose): 50.2 µM | inhibition at 10 µM (A549/ATCC; Homo sapiens, 10 μM single dose, A549/ATCC (non-small cell lung cancer), read-out: growth inhibition percent (GI%)): > 100% | TGI (A549/ATCC; five-dose): 21.50 µM | GI50 (SW-620; Homo sapiens, SW-620, five-dose): 3.38 µM | CC50 (SW-620; Homo sapiens, SW-620, five-dose, read-out: LC50 (the source's name)): 40.9 µM | inhibition at 10 µM (SW-620; Homo sapiens, 10 μM single dose, SW-620 (colon cancer), read-out: growth inhibition percent (GI%)): > 100% | TGI (SW-620; five-dose): 13.10 µM | GI50 (TK-10; Homo sapiens, TK-10, five-dose): 14.5 µM | LC50 (TK-10; Homo sapiens, TK-10, five-dose): 55.5 µM | inhibition at 10 µM (TK-10; Homo sapiens, 10 μM single dose, TK-10 (renal cancer), read-out: growth inhibition percent (GI%)): > 100% | TGI (TK-10; five-dose): 28.40 µM | GI50 (UACC-257; Homo sapiens, UACC-257, five-dose): 13.1 µM | CC50 (UACC-257; Homo sapiens, UACC-257, five-dose, read-out: LC50 (the source's name)): 52.6 µM | inhibition at 10 µM (UACC-257; Homo sapiens, 10 μM single dose, UACC-257 (melanoma), read-out: growth inhibition percent (GI%)): > 100% | TGI (UACC-257; five-dose): 26.20 µM | GI50 (KM12; Homo sapiens, KM12, five-dose): 17.1 µM | CC50 (KM12; Homo sapiens, KM12, five-dose, read-out: LC50 (the source's name)): 63.1 µM | inhibition at 10 µM (KM12; Homo sapiens, 10 μM single dose, KM12 (colon cancer), read-out: growth inhibition percent (GI%)): > 100% | TGI (KM12; five-dose): 32.80 µM | GI50 (K-562; Homo sapiens, K562, five-dose): 2.21 µM | CC50 (K-562; Homo sapiens, K562, five-dose, read-out: LC50 (the source's name)): 18.7 µM | inhibition at 10 µM (K-562; Homo sapiens, 10 μM single dose, (leukaemia), read-out: growth inhibition percent (GI%)): > 100% | TGI (K-562; five-dose): 5.42 µM | GI50 (SK-OV-3; Homo sapiens, SK-OV-3, five-dose): 16 µM | CC50 (SK-OV-3; Homo sapiens, SK-OV-3, five-dose, read-out: LC50 (the source's name)): 54.6 µM | inhibition at 10 µM (SK-OV-3; Homo sapiens, 10 μM single dose, SK-OV-3 (ovarian cancer), read-out: growth inhibition percent (GI%)): > 100% | TGI (SK-OV-3; five-dose): 29.50 µM | GI50 (OVCAR-8; Homo sapiens, OVCAR-8, five-dose): 6.21 µM | CC50 (OVCAR-8; Homo sapiens, OVCAR-8, five-dose, read-out: LC50 (the source's name)): 59.1 µM | inhibition at 10 µM (OVCAR-8; Homo sapiens, 10 μM single dose, OVCAR-8 (ovarian cancer), read-out: growth inhibition percent (GI%)): > 100% | TGI (OVCAR-8; five-dose): 21.80 µM | inhibition at 10 µM (MDA-MB-231/ATCC): > 100% | GI50 (Leukemia subpanel; Homo sapiens, subpanel I, read-out: MG-MID (GI50)): 5.59 µM | Selectivity index (GI50) (Leukemia subpanel; full panel MG-MID / subpanel I): 1.90 | MG-MID (TGI) (Leukemia subpanel; subpanel I): 16.17 µM | inhibition at 10 µM (SNB-75): > 100% | GI50 (NCI-H226; Homo sapiens, NCI-H226, five-dose): 13.8 µM | CC50 (NCI-H226; Homo sapiens, NCI-H226, five-dose, read-out: LC50 (the source's name)): 81.3 µM | inhibition at 10 µM (NCI-H226; Homo sapiens, 10 μM single dose, NCI-H226 (non-small cell lung cancer), read-out: growth inhibition percent (GI%)): > 100% | TGI (NCI-H226; five-dose): 33.40 µM | GI50 (MCF7; Homo sapiens, MCF7, five-dose): 3.94 µM | CC50 (MCF7; Homo sapiens, MCF7, five-dose, read-out: LC50 (the source's name)): 44.8 µM | inhibition at 10 µM (MCF7; Homo sapiens, 10 μM single dose, MCF7 (breast cancer), read-out: growth inhibition percent (GI%)): > 100% | TGI (MCF7; five-dose): 15.30 µM | GI50 (LOX IMVI; Homo sapiens, LOX IMVI, five-dose): 1.71 µM | CC50 (LOX IMVI; Homo sapiens, LOX IMVI, five-dose, read-out: LC50 (the source's name)): 6.48 µM | inhibition at 10 µM (LOX IMVI; Homo sapiens, 10 μM single dose, LOX IMVI (melanoma), read-out: growth inhibition percent (GI%)): > 100% | TGI (LOX IMVI; five-dose): 3.33 µM | GI50 (RXF 393; Homo sapiens, RXF 393, five-dose): 3.14 µM | CC50 (RXF 393; Homo sapiens, RXF 393, five-dose, read-out: LC50 (the source's name)): 44.2 µM | inhibition at 10 µM (RXF 393; Homo sapiens, 10 μM single dose, RXF 393 (renal cancer), read-out: growth inhibition percent (GI%)): > 100% | TGI (RXF 393; five-dose): 14.80 µM | GI50 (MALME-3M; Homo sapiens, Malme-3M, five-dose): 14.1 µM | CC50 (MALME-3M; Homo sapiens, Malme-3M, five-dose, read-out: LC50 (the source's name)): 56.3 µM | inhibition at 10 µM (MALME-3M; Homo sapiens, 10 μM single dose, MALME-3M (melanoma), read-out: growth inhibition percent (GI%)): > 100% | TGI (MALME-3M; five-dose): 28.20 µM | GI50 (CAKI-1; Homo sapiens, CAKI-1, five-dose): 16 µM | CC50 (CAKI-1; Homo sapiens, CAKI-1, five-dose, read-out: LC50 (the source's name)): 55.1 µM | inhibition at 10 µM (CAKI-1; Homo sapiens, 10 μM single dose, CAKI-1 (renal cancer), read-out: growth inhibition percent (GI%)): > 100% | TGI (CAKI-1; five-dose): 29.70 µM | GI50 (SR; Homo sapiens, SR, five-dose): 1.92 µM | CC50 (SR; Homo sapiens, SR, five-dose, read-out: LC50 (the source's name)): 13.8 µM | inhibition at 10 µM (SR; Homo sapiens, 10 μM single dose, SR (leukaemia), read-out: growth inhibition percent (GI%)): > 100% | TGI (SR; five-dose): 4.61 µM | GI50 (HOP-92; Homo sapiens, HOP-92, five-dose): 4.2 µM | CC50 (HOP-92; Homo sapiens, HOP-92, five-dose, read-out: LC50 (the source's name)): 48.4 µM | inhibition at 10 µM (HOP-92; Homo sapiens, 10 μM single dose, HOP-92 (non-small cell lung cancer), read-out: growth inhibition percent (GI%)): > 100% | TGI (HOP-92; five-dose): 18.10 µM | GI50 (NCI-H522; Homo sapiens, NCI-H522, five-dose): 11.3 µM | CC50 (NCI-H522; Homo sapiens, NCI-H522, five-dose, read-out: LC50 (the source's name)): 55.8 µM | inhibition at 10 µM (NCI-H522; Homo sapiens, 10 μM single dose, NCI-H522 (non-small cell lung cancer), read-out: growth inhibition percent (GI%)): > 100% | TGI (NCI-H522; five-dose): 25.10 µM | GI50 (786–0; Homo sapiens, 786-0, five-dose): 11 µM | LC50 (concentration killing 50% of tumour cells) (786–0; Homo sapiens, 786-0, five-dose): 58.9 µM | inhibition at 10 µM (786–0; Homo sapiens, 10 μM single dose, 786–0 (renal cancer), read-out: growth inhibition percent (GI%)): > 100% | TGI (786–0; five-dose): 25.40 µM | GI50 (HOP-62; Homo sapiens, HOP-62, five-dose): 13.2 µM | CC50 (HOP-62; Homo sapiens, HOP-62, five-dose, read-out: LC50 (the source's name)): 59.9 µM | inhibition at 10 µM (HOP-62; Homo sapiens, 10 μM single dose, HOP-62 (non-small cell lung cancer), read-out: growth inhibition percent (GI%)): > 100% | TGI (HOP-62; five-dose): 28.10 µM | GI50 (MDA-MB-468; [1]): 6.71 µM | LC50 (MDA-MB-468; [1]): 51.6 µM | inhibition at 10 µM (MDA-MB-468; Homo sapiens, 10 μM single dose, MDA-MB-468 (breast cancer), read-out: growth inhibition percent (GI%)): > 100% | TGI (MDA-MB-468; five-dose): 21.30 µM | GI50 (SNB-19; Homo sapiens, SNB-19, five-dose): 14.2 µM | CC50 (SNB-19; Homo sapiens, SNB-19, five-dose, read-out: LC50 (the source's name)): 60.6 µM | inhibition at 10 µM (SNB-19; Homo sapiens, 10 μM single dose, SNB-19 (CNS cancer), read-out: growth inhibition percent (GI%)): > 100% | TGI (SNB-19; five-dose): 29.30 µM | GI50 (DU-145; Homo sapiens, DU-145, five-dose): 15 µM | CC50 (DU-145; Homo sapiens, DU-145, five-dose, read-out: LC50 (the source's name)): 56 µM | inhibition at 10 µM (DU-145; Homo sapiens, DU-145, read-out: growth inhibition percent (GI%)): > 100% | TGI (DU-145; five-dose): 29.00 µM | GI50 (RPMI-8226; Homo sapiens, RPMI-8226, five-dose): 3.99 µM | CC50 (RPMI-8226; Homo sapiens, RPMI-8226, five-dose, read-out: LC50 (the source's name)): 65.4 µM | inhibition at 10 µM (RPMI-8226; Homo sapiens, 10 μM single dose, RPMI-8226 (leukaemia), read-out: growth inhibition percent (GI%)): > 100% | TGI (RPMI-8226; five-dose): 17.50 µM | inhibition at 10 µM (U251; Homo sapiens, U-251, 10 μM single dose, U251 (CNS cancer), read-out: growth inhibition percent (GI%)): > 100% | GI50 (U251; Homo sapiens, U-251, five-dose): 4.36 µM | CC50 (U251; Homo sapiens, U-251, five-dose, read-out: LC50 (the source's name)): 44.6 µM | TGI (U251; five-dose): 16.10 µM | GI50 (MDA-MB-435; Homo sapiens, MDA-MB-435, five-dose): 16.9 µM | CC50 (MDA-MB-435; Homo sapiens, MDA-MB-435, five-dose, read-out: LC50 (the source's name)): 58.8 µM | inhibition at 10 µM (MDA-MB-435; Homo sapiens, 10 μM single dose, MDA-MB-435 (melanoma), read-out: growth inhibition percent (GI%)): > 100% | TGI (MDA-MB-435; five-dose): 31.50 µM
